The text below walks through data of patent publication CN117567270A, “一种醇胺-壬二酸超分子离子盐及其制备和应用” (Jiangnan University, priority 2023, dated 2024).

The test system of data set [1] is Escherichia coli [大肠埃希氏菌]. The data set is described as follows: Antibacterial challenge test (single inoculation, 28 d), Escherichia coli. The class given is cell-based. The note with it: for increase of bacterial count: 14~28 d; for sterilising effect (compared with control group): 7 d, control group: azelaic acid neutralised to pH 7.0.
In data set [2] the test system is Pseudomonas aeruginosa [铜绿假单胞菌]. The data set is described as follows: Antibacterial challenge test (single inoculation, 28 d), Pseudomonas aeruginosa. The class given is cell-based. The following applies: for increase of bacterial count: 14~28 d; for sterilising effect (compared with control group): 7 d, control group: azelaic acid neutralised to pH 7.0.
Data set [3] concerns Staphylococcus aureus [金黄色葡萄球菌]. The data set is described as follows: Antibacterial challenge test (single inoculation, 28 d), Staphylococcus aureus. The class given is cell-based. The note with it: 14~28 d.
The subject of data set [4] is Escherichia coli, Pseudomonas aeruginosa and Staphylococcus aureus [大肠埃希氏菌、铜绿假单胞菌和金黄色葡萄球菌]. The data set is described as follows: Antibacterial challenge test, overall result. The class given is cell-based. The following applies: for antibacterial challenge test passed: criterion: log decline at 14 d not less than 2.0 and no rise 14~28 d.
In data set [5] the test system is human skin stratum corneum [人体皮肤角质层]. The data set is described as follows: Moisturising performance test (skin water content by capacitance method). The note with it: toner with azelaic acid mass fraction 0.2%; for water content of human skin: 1 h after application; for moisturising ability (compared with control group): long time; for water loss of skin (compared with control group): longer time; for water replenishing ability (compared with control group): short time. The class given is in vivo.

The conditions of data set [6]: background statement; cited from earlier work.
Data set [7] can be described thus: Storage stability of the salt and its water dilutions. The class given is physicochemical. The note with it: 3 months, undiluted and diluted 1, 5, 10, 20, 50 times with water.
Data set [8] can be described thus: High/low temperature cycling of the salt and its water dilutions. The class given is physicochemical. The note with it: 15 cycles -5~40℃; undiluted and diluted 1, 5, 10, 20, 50 times with water.

In the case of `O=C(O)CCCCCCCC(=O)O` [壬二酸, reference compound], the “increase of bacterial count” value in data set [1], in data set [2] and in data set [3] was “不增加” throughout. Also, the “antibacterial challenge test passed” value in data set [4] is recorded as “通过抗菌挑战测试”. Besides, the “water content of human skin” value in data set [5] is “明显上升”. For the same molecule, the solubility in water result in data set [6] is recorded as “很低”.

In the case of `O=C(O)CCCCCCCC(=O)O.OCCN(CCO)CCO.OCCN(CCO)CCO` [实施例1, 三乙醇胺-壬二酸超分子离子盐], in data set [1], the “increase of bacterial count” value is given as “不增加” and the “sterilising effect (compared with control group)” value is “更加优异”. In data set [2], the “increase of bacterial count” value is reported as “不增加” and the “sterilising effect (compared with control group)” value is recorded as “更加优异”. The “increase of bacterial count” value in data set [3] is reported as “不增加”. The “short-term antibacterial effect compared with azelaic acid” value in data set [4] is recorded as “优于壬二酸”. In addition, in data set [5], the “water content of human skin” value was “明显上升”, the “moisturising ability (compared with control group)” value is recorded as “更加优异”, the “water loss of skin (compared with control group)” value was “较为缓慢” and the “water replenishing ability (compared with control group)” value was “更加优异”.

In the case of `NCC(O)CO.NCC(O)CO.O=C(O)CCCCCCCC(=O)O` [实施例2, 氨基丙二醇-壬二酸超分子离子盐], in data set [1], the “increase of bacterial count” value was “不增加” and the “sterilising effect (compared with control group)” value is listed as “更加优异”. In addition, in data set [2], the “increase of bacterial count” value is “不增加” and the “sterilising effect (compared with control group)” value is listed as “更加优异”. Moreover, the “increase of bacterial count” value in data set [3] is “不增加”. For the same molecule, in data set [4], the “antibacterial challenge test passed” value was “通过抗菌挑战测试” and the “short-term antibacterial effect compared with azelaic acid” value was “优于壬二酸”. Moreover, in data set [5], the “water content of human skin” value is on record as “明显上升”, the “moisturising ability (compared with control group)” value is reported as “更加优异”, the “water loss of skin (compared with control group)” value is given as “较为缓慢” and the “water replenishing ability (compared with control group)” value is reported as “更加优异”. Besides, the “precipitation of insolubles and colour change” value in data set [7] (45℃ oven) was “无不溶物析出且无颜色变化”. The “precipitation of insolubles and colour change” value in data set [7] (room temperature, natural light) is reported as “无不溶物析出且无颜色变化”. Also, in data set [8], the “precipitation of insolubles and colour change” value is on record as “无不溶物析出且无颜色变化”.

As for `CC(C)(N)CO.O=C(O)CCCCCCCC(=O)O` [实施例3, 氨甲基丙醇-壬二酸超分子离子盐], in data set [1], the “increase of bacterial count” value is “不增加” and the “sterilising effect (compared with control group)” value is “更加优异”. Further, in data set [2], the “increase of bacterial count” value was “不增加” and the “sterilising effect (compared with control group)” value is reported as “更加优异”. Also, the “increase of bacterial count” value in data set [3] is given as “不增加”. Moreover, in data set [4], the “antibacterial challenge test passed” value is “通过抗菌挑战测试” and the “short-term antibacterial effect compared with azelaic acid” value is recorded as “优于壬二酸”. In data set [5], the “water content of human skin” value is “明显上升”, the “moisturising ability (compared with control group)” value is listed as “更加优异”, the “water loss of skin (compared with control group)” value is reported as “较为缓慢” and the “water replenishing ability (compared with control group)” value is on record as “更加优异”.
